Literature values, collected in US20030104085A1, “Methods and compositions for treating back pain” (priority 2001, published 2003).

Tests used:
rats = settings: subcutaneous and epidural administration; cited from earlier work
[1] = tested on: nerve endings in the skin; settings: topical administration; cited from earlier work

Structure (SMILES): C=C(C)[C@]12C[C@@H](C)[C@@]34O[C@](Cc5ccccc5)(O[C@@H]1[C@@H]3C=C(COC(=O)Cc1ccc(O)c(OC)c1)C[C@]1(O)C(=O)C(C)=C[C@@H]41)O2 [RTX, resiniferatoxin]
- thermal analgesia (rats): produce thermal analgesia
- time without restoration of pain sensitivity (rats): over 7 days
- sensitivity to chemical pain stimulation [1]: long-lasting insensitivity to chemical pain stimulation
